{"source": "patent US20140314790A1", "about": "“CASPASE 9 INHIBITION AND BRI2 PEPTIDES FOR TREATING DEMENTIA” (ALBERT EINSTEIN COLLEGE OF MEDICINE OF YESHIVA UNIVERSITY, priority 2011, published 2014)", "key": {"[1]": {"tested_on": "FDDKI mice and WT littermates", "assay": "Novel object recognition (NOR) test after injection in the lateral ventricle", "format": "in vivo"}, "[2]": {"target": "γ-secretase", "details": "two values given, not explained; cited from earlier work"}, "[3]": {"tested_on": "hippocampal slices of FDDKI and WT mice (Schaeffer collateral pathway LTP)", "assay": "Long-term potentiation (LTP) in hippocampal slices perfused 60 min with test substance", "details": "for reversal of LTP impairment in FDDKI mice: sixty minute perfusion; for reversal of LTP deficit in FDDKI mice: 60 min perfusion", "from_the_text": "All data are shown as mean±s.e.m. Statistical tests included two-way ANOVA for repeated measures and t-test when appropriate."}, "[4]": {"tested_on": "β- and α-cleavage of APP", "assay": "APP processing in HEK293-APP cells, sAPPβ and sAPPα in media by Western blot", "details": "for inhibition of β-cleavage of APP relative to N3: 5 μM, 8 hrs (FIG. 8B); for α-processing of APP (sAPPα in media) / β-cleavage of APP (sAPPβ in media): 25 μM, 8 hrs (FIG. 8A); for inhibition of APP processing: 25 μM (FIG. 8A) or 5 μM (FIG. 8B)", "quoted_text": "WB of cell lysates detected APP and α-Tubulin. […] The data are shown as % of inhibition of β-secretase activity in samples without inhibitors.\nBRI2-derived peptides and APP processing. APP-transfected HEK293 cells were incubated with the indicated peptides for 8 hrs."}, "[5]": {"target": "T1, APP (Homo sapiens, UniProt P05067)", "T1 construct": "expressed in transfected cells; host or cells: HeLa cells transfected with APP (HeLa-APP)", "T1 sequence (P05067 18-770)": "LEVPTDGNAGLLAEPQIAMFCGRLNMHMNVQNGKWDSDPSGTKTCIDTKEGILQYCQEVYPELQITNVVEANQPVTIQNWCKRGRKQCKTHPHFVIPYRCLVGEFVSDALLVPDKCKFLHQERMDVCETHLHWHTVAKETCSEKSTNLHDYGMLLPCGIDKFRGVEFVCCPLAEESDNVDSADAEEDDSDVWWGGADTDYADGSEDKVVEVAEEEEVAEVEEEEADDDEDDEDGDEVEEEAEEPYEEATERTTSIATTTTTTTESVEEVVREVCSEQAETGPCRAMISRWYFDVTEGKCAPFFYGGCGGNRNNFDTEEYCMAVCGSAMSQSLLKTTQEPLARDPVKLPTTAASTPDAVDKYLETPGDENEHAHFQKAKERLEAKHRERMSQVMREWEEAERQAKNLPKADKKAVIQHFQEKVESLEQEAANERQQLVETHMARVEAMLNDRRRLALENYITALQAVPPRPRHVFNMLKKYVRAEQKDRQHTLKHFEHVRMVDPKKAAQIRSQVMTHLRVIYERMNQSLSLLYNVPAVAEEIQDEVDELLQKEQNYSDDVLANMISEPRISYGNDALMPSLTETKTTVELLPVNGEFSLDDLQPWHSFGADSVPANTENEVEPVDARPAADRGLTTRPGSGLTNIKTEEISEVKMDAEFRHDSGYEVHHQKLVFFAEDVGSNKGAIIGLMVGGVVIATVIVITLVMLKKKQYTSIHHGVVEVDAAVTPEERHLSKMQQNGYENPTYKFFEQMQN", "assay": "α-Flag precipitation of Flagged peptides from HeLa/APP cells", "format": "binding", "details": "for binding to APP (co-precipitation): HeLa/APP cells, 40 μM Flagged peptide, 2 hours", "method": "(§1) FIG. 8A-8I. 4A BRI2-derived peptide binds APP and inhibits β-cleavage of APP. (A-B) HEK293-APP cells were incubated with the indicated peptides (N1, N2, […] are SEQ ID NOs: 2, 3, 4, 5, 6, 7, 8, and 9, respectively). β- and α-cleavage of APP were quantified by measuring sAPPβ and sAPPα in media by WB. WB of cell lysates detected APP and α-Tubulin. (C-E) WB analysis of lysates (L) or α-Flag IP (IP) from HeLa/APP cells incubated for 2 hours with Flagged peptides. […] (G) Biotinylated cells were cultured as in (C). The reduced and not reduced samples are indicated (+red and −red, respectively). Lysates (L), α-Flag IP eluted with Flag-peptide (E), eluted sample precipitated with streptavidin-beads [both the fraction unbound (U) and bound (B) to streptavidin-beads], were probed for APP in WB. (H) Purified β-secretase was incubated with fluorescent β-secretase substrate for 30 minutes, resulting in β-cleavage that could be detected by fluorescence increase. […] The data are shown as % of inhibition of β-secretase activity in samples without inhibitors. (I) Model of N3-2A/MoBA activity.\nPrecipitation with FLAG-peptides. To prepare brain cells, mouse brains were washed in PBS and minced in dissociation buffer. After sedimentation and filtration, dissociated cells were cultured in Neurobasal media. Cells incubated with Flagged-peptides were lysed and precipitated with Flag-M2-agarose-beads as described (Matsuda et al, 2005). Bound proteins were eluted with 100 μg/ml of FLAG peptide.\nA BRI2-derived peptide binds APP and inhibits β-cleavage of APP. It was tested whether peptides spanning this domain duplicated BRI2's function. […] Next it was examined if N3-2A (SEQ ID NO:5) binds APP. HeLa-APP cells were cultured with or without N3-2A fused to a C-terminal Flag epitope (N3-2A-F). After 2 hrs of incubation, cell lysates were precipitated with α-Flag-agarose-beads and co-precipitated molecules were eluted with a Flag-peptide."}, "[6]": {"target": "T2, purified β-secretase (Homo sapiens, UniProt P56817)", "T2 construct": "purchased Invitrogen", "T2 sequence (P56817 46-501)": "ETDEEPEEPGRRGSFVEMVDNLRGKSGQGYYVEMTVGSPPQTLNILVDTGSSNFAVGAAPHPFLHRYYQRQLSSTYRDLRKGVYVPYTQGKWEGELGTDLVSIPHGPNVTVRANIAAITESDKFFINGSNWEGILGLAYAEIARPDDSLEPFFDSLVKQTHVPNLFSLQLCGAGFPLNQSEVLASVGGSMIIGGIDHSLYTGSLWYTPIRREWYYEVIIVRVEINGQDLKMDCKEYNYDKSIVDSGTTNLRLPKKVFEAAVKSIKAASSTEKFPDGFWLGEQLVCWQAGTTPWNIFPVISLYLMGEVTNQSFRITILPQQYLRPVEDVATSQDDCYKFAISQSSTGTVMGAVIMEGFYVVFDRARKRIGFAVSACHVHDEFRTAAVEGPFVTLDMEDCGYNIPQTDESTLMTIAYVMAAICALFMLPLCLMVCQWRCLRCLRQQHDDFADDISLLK", "assay": "β-secretase FRET activity assay with purified enzyme", "format": "biochemical", "details": "fluorescent β-secretase substrate, 30 minutes", "quoted_text": "WB of cell lysates detected APP and α-Tubulin. (C-E) WB analysis of lysates (L) or α-Flag IP (IP) from HeLa/APP cells incubated for 2 hours with Flagged peptides. […] (G) Biotinylated cells were cultured as in (C). The reduced and not reduced samples are indicated (+red and −red, respectively). […] The data are shown as % of inhibition of β-secretase activity in samples without inhibitors."}, "[7]": {"target": "T3, endogenous APP (Mus musculus, UniProt P12023)", "T3 construct": "endogenous in cells; host or cells: dissociated mouse brain cells cultured in Neurobasal media", "T3 sequence (P12023 18-770)": "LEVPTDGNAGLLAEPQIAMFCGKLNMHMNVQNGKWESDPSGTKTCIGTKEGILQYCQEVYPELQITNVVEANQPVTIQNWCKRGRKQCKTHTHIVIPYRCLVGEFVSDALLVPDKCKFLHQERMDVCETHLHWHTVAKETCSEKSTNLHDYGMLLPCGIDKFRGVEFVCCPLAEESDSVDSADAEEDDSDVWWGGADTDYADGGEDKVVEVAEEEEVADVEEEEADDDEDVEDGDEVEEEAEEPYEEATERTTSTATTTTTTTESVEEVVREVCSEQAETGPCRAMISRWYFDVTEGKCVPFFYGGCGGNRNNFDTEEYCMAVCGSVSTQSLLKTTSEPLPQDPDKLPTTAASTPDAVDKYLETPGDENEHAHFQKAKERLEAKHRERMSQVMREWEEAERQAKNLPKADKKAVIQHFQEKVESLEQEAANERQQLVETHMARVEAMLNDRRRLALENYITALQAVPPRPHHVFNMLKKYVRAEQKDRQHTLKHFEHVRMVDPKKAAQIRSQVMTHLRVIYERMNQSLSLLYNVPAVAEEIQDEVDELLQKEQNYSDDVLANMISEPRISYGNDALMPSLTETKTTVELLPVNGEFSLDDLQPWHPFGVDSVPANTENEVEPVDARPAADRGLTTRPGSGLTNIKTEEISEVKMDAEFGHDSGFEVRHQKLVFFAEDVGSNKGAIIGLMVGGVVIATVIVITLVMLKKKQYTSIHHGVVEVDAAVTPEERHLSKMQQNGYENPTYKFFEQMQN", "assay": "α-Flag precipitation of Flagged peptide from cultured brain cells", "format": "binding", "method": "as §1\nPrecipitation with FLAG-peptides. To prepare brain cells, mouse brains were washed in PBS and minced in dissociation buffer. After sedimentation and filtration, dissociated cells were cultured in Neurobasal media. […]"}, "[8]": {"tested_on": "primary hippocampal neuron cultures", "details": "cited from earlier work"}, "[9]": {"tested_on": "rat models of stroke", "details": "cited from earlier work"}, "[10]": {"details": "FDDKI mice, 1 μl of PBS/100 μM in lateral ventricle"}, "[11]": {"details": "FDDKI mice, 1 μl of PBS/500 μM in lateral ventricle, 1 hr before training and testing"}}, "note": "Several values for one entry are separate records, joined by “and”; a condition that tells them apart may be missing. Equal values may be shown once. Starred links: 1 amine or outer side, 2 acyl side, 3 side chain; linkers in the order of their positions; H or OH if unused. Non-standard residues stand in square brackets, D forms with d. No end group written: not given here. *: point of attachment. E(OMe) = COC(=O)CC[C@H](N[*:1])C(=O)[*:2]; D(OMe) = COC(=O)C[C@H](N[*:1])C(=O)[*:2]; code Z = not defined here; Cbz = O=C(OCc1ccccc1)*; CH2F = FC*", "data": [{"compound": "C[C@H](NC(=O)Cc1cc(F)cc(F)c1)C(=O)N[C@H]1N=C(c2ccccc2)c2ccccc2N(C)C1=O", "note": "[compound-E]", "values": [{"measurement": "rescue of memory deficit of FDDKI mice (NOR)", "setting": "[1]; FDDKI mice, 1 μl of PBS/300 nM compound-E", "value": "does not"}, {"measurement": "rescue of memory deficit of FDDKI mice (NOR)", "setting": "[1]; FDDKI mice, ten-fold higher dose, 1 μl of PBS/3 μM compound-E", "value": "did not correct the memory deficit of Danish mice"}, {"measurement": "performance of WT animals (NOR)", "setting": "[1]; WT mice, 1 μl of PBS/300 nM compound-E", "value": "nor altered performance of WT animals"}, {"measurement": "memory of WT mice (NOR)", "setting": "[1]; WT mice, ten-fold higher dose, 1 μl of PBS/3 μM compound-E", "value": "showed a trend, though not statistically significant, toward memory impairment"}, {"measurement": "IC50", "setting": "[2]", "value": "0.3 nM and 0.24 nM"}, {"measurement": "rescue of LTP defect in FDDKI samples", "setting": "[3]; FDDKI slices, 1 nM", "value": "does not rescue the LTP defect in FDDKI samples"}, {"measurement": "effect on LTP of WT mice", "setting": "[3]; WT slices, compound-E 1 nM", "value": "do not alter LTP of WT mice"}]}, {"compound": "ADVYYCGLKY (FRAGMENT DIRECTED TO HOMO SAPIENS PROTEIN) [N3-1A]", "values": [{"measurement": "inhibition of β-cleavage of APP relative to N3", "setting": "[4]", "value": "stronger inhibitor of APP processing by β-secretase"}]}, {"compound": "Cbz-Val-Ala-Asp(OMe)-CH2F [Z-VAD-FMK]", "values": [{"measurement": "reversal of LTP impairment in FDDKI mice", "setting": "[3]; FDDKI slices, 10 μM", "value": "reverse LTP impairment in FDDKI mice"}]}, {"compound": "DAVYYCGLKY (FRAGMENT DIRECTED TO A HOMO SAPIENS PROTEIN) [N3-2A]", "values": [{"measurement": "rescue of memory deficit of FDDKI mice (NOR)", "setting": "[1]; [10]", "value": "transiently rescue this memory deficit"}, {"measurement": "binding to β-CTF", "setting": "[5]; HeLa/APP cells (FIG. 8C, D)", "value": "does not bind β-CTF"}, {"measurement": "competition for binding to APP", "setting": "[5]; untagged peptide added to media containing 40 μM N3-2A-F", "value": "could compete for binding to APP"}, {"measurement": "inhibition of β-secretase activity", "setting": "[6]", "value": "did not inhibit the activity of purified β-secretase"}, {"measurement": "α-processing of APP", "setting": "[4]; 5 μM (FIG. 8B)", "value": "did not overtly inhibit α-processing of APP"}, {"measurement": "inhibition of β-cleavage of APP relative to N3", "setting": "[4]", "value": "stronger inhibitor of APP processing by β-secretase"}, {"measurement": "reversal of LTP deficit in FDDKI mice", "setting": "[3]; FDDKI slices, 10 nM", "value": "reversed the LTP deficit of FDDKI samples"}, {"measurement": "reversal of LTP deficit in FDDKI mice", "setting": "[3]; FDDKI slices, 1 μM", "value": "reversed the LTP deficit of FDDKI samples"}, {"measurement": "effect on LTP of WT mice", "setting": "[3]; WT slices, 1 μM", "value": "does not alter LTP of WT mice"}]}, {"compound": "DDVYYCGLKY (FRAGMENT DIRECTED TO A HOMO SAPIENS PROTEIN) [N3]", "values": [{"measurement": "α-processing of APP (sAPPα in media)", "setting": "[4]", "value": "moderately decreased α-processing of APP"}, {"measurement": "β-cleavage of APP (sAPPβ in media)", "setting": "[4]", "value": "strongly reduced β-cleavage"}]}, {"compound": "DDVYYCGLKYIKDD (FRAGMENT DIRECTED TO HUMAN PROTEIN) [N8]", "values": [{"measurement": "α-processing of APP (sAPPα in media)", "setting": "[4]", "value": "moderately decreased α-processing of APP"}, {"measurement": "β-cleavage of APP (sAPPβ in media)", "setting": "[4]", "value": "strongly reduced β-cleavage"}]}, {"compound": "ILNEPSADAP (FRAGMENT DIRECTED TO HUMAN PROTEIN) [N6]", "values": [{"measurement": "inhibition of APP processing", "setting": "[4]", "value": "does not inhibit APP processing"}, {"measurement": "reversal of LTP deficit in FDDKI mice", "setting": "[3]; FDDKI slices, 1 μM", "value": "does not rescue the LTP deficit"}]}, {"compound": "N3-2A-F: N3-2A fused to a C-terminal Flag epitope (DAVYYCGLKY-{Flag epitope})", "values": [{"measurement": "binding to APP (co-precipitation)", "setting": "[5]", "value": "binds mature APP"}, {"measurement": "binding to endogenous APP", "setting": "[7]", "value": "binds endogenous APP"}]}, {"compound": "N3-4A-F: Flagged single amino acid N3 mutant (DDVAYCGLKY-{Flag epitope})", "values": [{"measurement": "binding to APP (co-precipitation)", "setting": "[5]", "value": "did not bind APP"}, {"measurement": "inhibition of APP processing", "setting": "[4]", "value": "do not inhibit APP processing"}]}, {"compound": "Pen1-XBIR3: XIAP-BIR3 domain disulfide-linked to cell-penetrating peptide Penetratin1; specific inhibitor of active caspase-9", "values": [{"measurement": "persistence of therapeutic effect post injection", "setting": "[1]; FDDKI mice, NOR without treatments after 5 days of rest", "value": "at least 5 days"}, {"measurement": "rescue of memory deficit of FDDKI mice (NOR)", "setting": "[1]; FDDKI mice, lateral ventricle, 2 μl of PBS/23 μM Pen1-XBIR3 or 2 μl of PBS/16 μM Pen1-CrmA, 1 h before training and testing", "value": "rescues this memory deficit"}, {"measurement": "therapeutic effect in NOR test repeated 5 days later", "setting": "[1]; FDDKI mice, no further treatments", "value": "still significant"}, {"measurement": "memory in WT animals (NOR)", "setting": "[1]; WT mice, 2 μl of PBS/23 μM Pen1-XBIR3 or 2 μl of PBS/16 μM Pen1-CrmA", "value": "Neither Pen1-XBIR3 nor Pen1-CrmA altered memory in WT animals"}, {"measurement": "caspase-9 dependent cell death", "setting": "[8]", "value": "inhibits caspase-9 dependent cell death"}, {"measurement": "therapeutic effect", "setting": "[9]; direct parenchymal or intranasal delivery, rat", "value": "therapeutically effective"}, {"measurement": "caspase-9 block after delivery to the CNS", "setting": "[9]; in vivo model of cerebral ischemia", "value": "blocks caspase-9"}, {"measurement": "functional protection against ischemia post-infarction", "setting": "[9]; one dose", "value": 3, "unit": "weeks"}]}, {"compound": "Z-D(OMe)-E(OMe)-V-D(OMe)-FMK [Z-DEVD-FMK]", "values": [{"measurement": "rescue of memory deficit of FDDKI mice (NOR)", "setting": "[1]; [11]", "value": "does not"}, {"measurement": "performance of WT animals (NOR)", "setting": "[1]; WT mice, 1 μl of PBS/500 μM in lateral ventricle", "value": "nor altered performance of WT animals"}]}, {"compound": "Z-L-E(OMe)-H-D(OMe)-FMK.TFA ({code Z}-L[E(OMe)]H[D(OMe)]-CH2F; reading uncertain; also: TFA salt, printed as Z-L-E(OMe)-H-D(OMe)-FMK.TFA) [Z-LEHD-FMK]", "values": [{"measurement": "rescue of memory deficit of FDDKI mice (NOR)", "setting": "[1]; [11]", "value": "transiently rescue this memory deficit"}, {"measurement": "reversal of LTP impairment in FDDKI mice", "setting": "[3]; FDDKI slices, 2 μM", "value": "reverse LTP impairment in FDDKI mice"}, {"measurement": "effect on LTP of WT mice", "setting": "[3]; WT untreated vs. WT treated with Z-LEHD-FMK", "value": "does not alter LTP of WT mice"}]}, {"compound": "β-secretase-inhibitor IV", "values": [{"measurement": "rescue of memory deficit of FDDKI mice (NOR)", "setting": "[1]; [10]", "value": "transiently rescue this memory deficit"}, {"measurement": "rescue of LTP impairment in FDDKI mice", "setting": "[3]; FDDKI slices, 50 nM", "value": "rescues LTP impairment in FDDKI mice"}, {"measurement": "effect on LTP of WT mice", "setting": "[3]; WT slices, β-secretase inhibitor IV 50 nM", "value": "do not alter LTP of WT mice"}]}]}
